Source: patent US11130780B2, “Inhibitors of growth factor activation enzymes” (Washington University, priority 2015, dated 2021)
Where “and” joins values, the source holds several entries; their conditions need not be identical. Equal values may be shown once. Read-outs that look alike come from different tables or passages of the source.

Legend:
Assay type in all cases: biochemical
[1] = biological target: T1, HGFA (Homo sapiens, UniProt Q04756); assay: Fluorescent kinetic enzyme inhibitor assay of HGFA; settings: Fluorogenic Assay, read-out: HGFA Ki
T1 construct: His6 tag (N); seven amino acid spacer and seven amino acid TEV cleavage site (N); Honey Bee melittin signal peptide (N); made in house; host or cells: High 5 insect cells (baculovirus; virus raised in Sf9)
T1 sequence (Q04756 373-655): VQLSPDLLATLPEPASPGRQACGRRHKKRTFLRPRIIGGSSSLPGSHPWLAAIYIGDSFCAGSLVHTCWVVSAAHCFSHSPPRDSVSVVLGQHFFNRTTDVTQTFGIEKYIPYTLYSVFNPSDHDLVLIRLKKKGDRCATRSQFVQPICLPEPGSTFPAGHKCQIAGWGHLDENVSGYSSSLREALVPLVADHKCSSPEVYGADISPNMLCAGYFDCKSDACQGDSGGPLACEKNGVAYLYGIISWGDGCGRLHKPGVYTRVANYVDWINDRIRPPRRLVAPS
Source text: Using primers identified as SEQ ID NO 1, SEQ ID NO 2, and standard PCR protocols, the nucleotide sequence encoding amino acids 373-655 of HGFA was synthesized. This PCR product was cloned into the SfoI-HindIII sites of a modified pFastBac HT baculovirus expression vector (Addgene, Cambridge, Mass.). This vector contains a six amino His tag followed by a seven amino spacer and a seven amino acid TEV cleavage site placed immediately downstream of the Honey Bee melittin signal peptide. Using a modified Bac to Bac Expression System (Life Technologies, Carlsbad, Calif.), recombinant HGFA bacmids were obtained by transforming DH10Bac Escherichia coli cells. To obtain HGFA containing baculovirus, purified bacmids were transfected into Sf9 insect cells. After 5 days in culture at 27° C., media was harvested from transfected Sf9 cells. This media was used to prepare baculovirus infected insect cells (BIICs). These BIIICs were used to infect High 5 insect cells. Four days post infection, media was harvested and recombinant protein prepared as follows. Media was chilled to 4° C. and spun at 4000×g for 20 minutes (all subsequent steps were performed at 4° C. unless noted). Clarified media was passed first through a Whatman GF/B 1 um (#1821-047, GE Healthcare Life Sciences, Piscataway, N.J.) and then a 0.22 um PES membrane (#99955, TPP Techno Plastic Products AG, Trasadingen, Switzerland) and then concentrated using a Pall Centramate tangential flow system and Centramate T-series Cassette (#OS010T12, Pall Corporation, Port Washington, N.Y.). Concentrated media was then buffer exchanged in two steps, five volumes of 50 mM Na-phosphate, 500 mM NaCl, pH 6.2, followed by five volumes of 50 mM Na-phosphate, 500 mM NaCl, pH 7.5. The concentrated and buffered exchanged insect cell media was again filtered as above and made 25 mM imidazole (#1202, Sigma-Aldrich, St. Louis, Mo.) and was mixed with nickel agarose beads (#H-321-25, Gold Biotechnology, Inc., St. Louis Mo.). After mixing this slurry for 12 hours, nickel agarose beads were allowed to settle by gravity and then loaded into a column. Beads were washed with buffer (25 mM Na-phosphate, 500 mM NaCl, 25 mM imidazole, pH 8) and the bound protein eluted using (25 mM Na-phosphate, 500 mM NaCl, 250 mM imidazole, pH 8). Using a Amicon Ultra-4 Centrifugal filters (#UFC801008, Merck Millipore, Ltd., Tullagreen, Ireland), peak protein fractions were concentrated and run over a Superdex-200 10/300 GL column (GE Healthcare Life Sciences, Piscataway, N.J.) in 10 mM Tris, 200 mM NaCl, 0.2 mM EDTA, pH 8. HGFA containing fractions were pooled, concentrated, made 50% glycerol, and stored at minus 20° C. Protein was quantitated using a modified Lowry protein assay (#500-0006, Bio-Rad Laboratories, Hercules, Calif.).
(§1) Inhibitors (11-pt serial dilutions, 0-20 μM final concentration in reaction) were serially diluted in DMSO (2% DMSO final concentration) and then mixed with either recombinant serine protease domain of HGFA [Z. Han, P. K. Harris, D. E. Jones, R. Chugani, T. Kim, M. Agarwal, W. Shen, S. A. Wildman, J. W. Janetka, Acs Med Chem Lett 2014, 5, 1219-1224], matriptase (Charles Craik, UCSF) or hepsin* (#4776-SE-010, R&D Systems, Minneapolis, Minn.) in black 384 well plates (Corning #3575. Corning, N.Y.). […] The final substrate concentrations for all assays were at the Km for the respective enzymes. Changes in fluorescence (excitation at 380 nm and emission at 460 nm) were measured at room temperature over time in a Biotek Synergy 2 plate reader (Winnoski, Vt.). Using GraphPad Prism version 6.04 software program, (GraphPad Software, San Diego, Calif., www.graphpad.com), a four parameter curve fit was used to determine the inhibitor IC50s from a plot of the mean reaction velocity versus the inhibitor concentration. The IC50 values represent the average of three separate experimental determinations.

[2] = biological target: T2, hepsin (Homo sapiens, UniProt P05981); assay: Fluorescent kinetic enzyme inhibitor assay of hepsin; settings: Fluorogenic Assay, read-out: Hepsin Ki
T2 construct: purchased R&D Systems 4776-SE-010
Method: as §1

[3] = biological target: T3, matriptase (Homo sapiens, UniProt Q9Y5Y6); assay: Fluorescent kinetic enzyme inhibitor assay of matriptase; settings: Fluorogenic Assay
T3 construct: Charles Craik, UCSF (obtained from another laboratory)
T3 sequence (Q9Y5Y6 615-855 limits assumed): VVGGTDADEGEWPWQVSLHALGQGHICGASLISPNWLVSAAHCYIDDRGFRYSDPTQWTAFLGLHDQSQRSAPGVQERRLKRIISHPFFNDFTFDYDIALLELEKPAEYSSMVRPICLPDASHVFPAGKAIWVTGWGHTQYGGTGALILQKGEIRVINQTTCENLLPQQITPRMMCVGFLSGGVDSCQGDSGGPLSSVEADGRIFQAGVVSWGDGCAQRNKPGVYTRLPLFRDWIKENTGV
Method: as §1

[4] = biological target: T2, hepsin; assay: P4-P2 substrate specificity using HyCoSuL, hepsin; set-up: concentration or dose not given beside the values; settings: HyCoSuL substrate library; for P2 Position % Activity Hepsin: amino acid fixed at P2 position; for P3 Position % Activity Hepsin: amino acid fixed at P3 position; for P4 Position % Activity Hepsin: amino acid fixed at P4 position
Method: (§2) Each of the P4, P3, and P2 sublibraries were screened at the 100 μM concentration with hepsin either HGFA in a 100 μL final volume per well (99 μL of protease in buffer+1 μL of 10 mM substrates mixture). The total time of the assay was 30 minutes, however only linear portions of the progress curve (5-15 minutes) were used for velocity (RFU/s) calculations. Each sublibrary screening was repeated at least 3-times and the average value calculated from each measurement was used to create the substrate specificity matrix—the best recognized amino acid in each position was set to 100%, and other amino acids were adjusted accordingly.
Recombinant human hepsin (10 μg in 20 uL, 4776-SE-010, R&D Systems) was added to the 100 μL of activation buffer (0.1 M Tris, 0.15 M NaCl, 0.01 M CaCl2, 0.05% TRITON-X, pH=8.0) and incubated at 37° C. for 24 hours (hepsin concentration in activation buffer 2 μM). Once activated hepsin was diluted in assay buffer (0.05 M Tris, pH=9.0) to the final concentration of 4 nM and incubated at 37° C. for 15 minutes before added to a substrate.

[5] = biological target: T4, HGFA (Homo sapiens, UniProt Q04756); assay: P4-P2 substrate specificity using HyCoSuL, HGFA; set-up: P3 Position % Activity HGFA / P2 Position % Activity HGFA: concentration or dose not given beside the values; P4 Position % Activity HGFA: tested at 100 µM; settings: HyCoSuL substrate library; for P2 Position % Activity HGFA: amino acid fixed at P2 position; for P3 Position % Activity HGFA: amino acid fixed at P3 position; for P4 Position % Activity HGFA: amino acid fixed at P4 position
T4 sequence (Q04756 408-655 limits assumed): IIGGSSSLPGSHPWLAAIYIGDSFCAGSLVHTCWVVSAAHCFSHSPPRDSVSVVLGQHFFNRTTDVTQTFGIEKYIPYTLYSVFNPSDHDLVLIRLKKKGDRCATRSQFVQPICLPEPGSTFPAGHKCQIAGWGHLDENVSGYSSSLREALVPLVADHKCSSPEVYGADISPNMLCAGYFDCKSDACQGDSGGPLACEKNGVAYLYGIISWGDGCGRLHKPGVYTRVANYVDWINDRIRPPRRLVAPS
T4 sequence (Q04756 373-407 partner limits assumed): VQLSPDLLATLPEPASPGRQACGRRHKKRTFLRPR
Method: as §2
HFGA enzyme was diluted in the assay buffer (0.15 M NaCl, 0.025 M Tris, 0.005 M CaCl2, pH=8.0) to the final concentration of 10-20 nM (depending of sublibrary) and incubated at 25° C. for 30 minutes before added to a substrate.

T2 sequence (P05981 163-417 limits assumed): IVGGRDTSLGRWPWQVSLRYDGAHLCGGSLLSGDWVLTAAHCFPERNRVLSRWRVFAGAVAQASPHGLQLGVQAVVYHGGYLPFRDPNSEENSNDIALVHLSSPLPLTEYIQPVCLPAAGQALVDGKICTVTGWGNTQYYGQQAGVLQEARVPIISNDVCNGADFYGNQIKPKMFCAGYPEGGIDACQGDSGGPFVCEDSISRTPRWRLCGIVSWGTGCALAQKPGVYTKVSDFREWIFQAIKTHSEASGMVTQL
T2 sequence (P05981 45-162 partner limits assumed): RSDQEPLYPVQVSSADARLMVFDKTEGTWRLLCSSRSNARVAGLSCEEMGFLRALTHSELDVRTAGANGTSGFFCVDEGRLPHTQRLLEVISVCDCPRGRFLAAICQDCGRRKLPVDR

N=C(N)NCCC[C@H](NC(=O)[C@H](Cc1ccccc1)NC(=O)[C@H](N)Cc1c[nH]c2ccccc12)C(=O)c1nc2ccc(C(=O)O)cc2s1 [Compound 1-45A1, H-dWFR-kbt-COOH]
Ki ([1]; Table 6.1): 0.981 µM | Ki ([2]; Table 6.1): 0.00141 µM

N=C(N)c1cccc(C[C@H](NS(=O)(=O)c2ccc3ccccc3c2)C(=O)N2CCC(c3ccccc3)CC2)c1 [Compound 16, (S)-3-(2-(Naphthalene-2-sulfonamido)-3-oxo-3-(4-phenylpiperidin-1-yl)propyl)benzimidamide]
Ki ([1]; Table 9.1): 10.1 µM | Ki ([3]; Table 9.1): 0.3 µM | Ki ([2]; Table 9.1): 3.28 µM

N=C(N)c1cccc(C[C@H](NS(=O)(=O)c2ccc3ccccc3c2)C(=O)N2CCN(C(=O)NCc3ccccc3)CC2)c1 [Compound 17a, (S)—N-Benzyl-4-(3-(3-carbamimidoylphenyl)-2-(naphthalene-2-sulfonamido)propanoyl)piperazine-1-carboxamide]
Ki ([1]; Table 9.1, listed as FMF-1-279-003): 14 µM | Ki ([1]; Table 9.1): 14 µM | Ki ([3]; Table 9.1): 2.06 µM and 2.56 µM | Ki ([2]; Table 9.1): 1 µM and 1.04 µM

Cc1ccc(S(=O)(=O)N[C@@H](Cc2cccc(C(=N)N)c2)C(=O)N2CCC[C@H](NC(=O)OCc3ccccc3)C2)cc1 [Compound 18, Benzyl (S)-1-((S)-3-(3-carbamimidoylphenyl)-2-(4-methylphenylsulfonamido)propanoyl)piperidin-3-ylcarbamate]
Ki ([1]; Table 9.2): > 50 µM | Ki ([3]; Table 9.2): 1 µM | Ki ([2]; Table 9.2): 2.3 µM

Cc1ccc(S(=O)(=O)N[C@@H](Cc2cccc(C(=N)N)c2)C(=O)N2CCN(C(=O)OCc3ccccc3)CC2)cc1 [Compound 25h, (S)-Benzyl 4-(3-(3-carbamimidoylphenyl)-2-(4-methylphenylsulfonamido)propanoyl)piperazine-1-carboxylate]
Ki ([1]; Table 9.1): > 50 µM | Ki ([2]; Table 9.1): 2.4 µM

CC(C)c1cc(C(C)C)c(S(=O)(=O)N[C@@H](Cc2cccc(C(=N)N)c2)C(=O)N2CCN(C(=O)C3CCNCC3)CC2)c(C(C)C)c1 [Compound 26]
Ki ([2]; Table 9.1): 8.14 µM and 8.13 µM

CC(C)C(=O)N1CCN(C(=O)[C@H](Cc2cccc(C(=N)N)c2)NS(=O)(=O)c2ccc3ccccc3c2)CC1 [Compound 29]
Ki ([3]; Table 9.1): > 20 µM | Ki ([2]; Table 9.1): > 20 µM

CC(C)CN1CCN(C(=O)[C@H](Cc2cccc(C(=N)N)c2)NS(=O)(=O)c2ccc3ccccc3c2)CC1 [Compound 30]
Ki ([3]; Table 9.1): 12.4 µM | Ki ([2]; Table 9.1): 4.9 µM

N=C(N)c1cccc(C[C@H](NS(=O)(=O)c2ccc3ccccc3c2)C(=O)N2CCN(C(=O)Cc3cccc(O)c3)CC2)c1 [Compound 31]
Ki ([3]; Table 9.1): 4.4 µM | Ki ([2]; Table 9.1): 1.7 µM

N=C(N)c1cccc(C[C@H](NS(=O)(=O)c2ccc3ccccc3c2)C(=O)N2CCN(C(=O)Cc3ccc(F)cc3)CC2)c1 [Compound 32]
Ki ([3]; Table 9.1): 2.8 µM | Ki ([2]; Table 9.1): 1 µM

N=C(N)NCCC[C@H](NC(=O)[C@H](CCC(N)=O)NC(=O)OCC1c2ccccc2-c2ccccc21)C(=O)c1nc2ccccc2s1 [Compound 7185-6, Fmoc-QR-kbt]
Ki ([3]; Table 6.1): 0.0016 µM

CCOC(=O)N1CCN(C(=O)[C@H](Cc2cccc(C(=N)N)c2)NS(=O)(=O)c2ccc3ccccc3c2)CC1 [FMF-1-275-004]
Ki ([3]; Table 9.1): 2.78 µM | Ki ([2]; Table 9.1): 39.5 µM

D-Val
P2 Position % Activity Hepsin [4]: 0.00% | P3 Position % Activity Hepsin [4]: 27.04% | P4 Position % Activity Hepsin [4]: 22.58% | P2 Position % Activity HGFA [5]: 0.00% | P3 Position % Activity HGFA [5]: 5.76% | P4 Position % Activity HGFA [5]: 8.25%

L-Dab
P2 Position % Activity Hepsin [4]: 13.49% | P3 Position % Activity Hepsin [4]: 48.55% | P4 Position % Activity Hepsin [4]: 47.53% | P2 Position % Activity HGFA [5]: 0.50% | P3 Position % Activity HGFA [5]: 29.40% | P4 Position % Activity HGFA [5]: 16.76%

L-Pip
P2 Position % Activity Hepsin [4]: 10.66% | P3 Position % Activity Hepsin [4]: 1.64% | P4 Position % Activity Hepsin [4]: 34.68% | P2 Position % Activity HGFA [5]: 1.75% | P3 Position % Activity HGFA [5]: 0.83% | P4 Position % Activity HGFA [5]: 9.25%

β-Ala
P2 Position % Activity Hepsin [4]: 0.00% | P3 Position % Activity Hepsin [4]: 22.78% | P4 Position % Activity Hepsin [4]: 30.74% | P2 Position % Activity HGFA [5]: 0.24% | P3 Position % Activity HGFA [5]: 15.95% | P4 Position % Activity HGFA [5]: 10.07%
